# Experimental data taken from patent US20220249539A1, “BOLAAMPHIPHILIC COMPOUNDS, COMPOSITIONS AND USES THEREOF” (priority 2015, published 2022).
# Columns and labels:
# [1] = Fluorescence in mouse cerebral cortex after i.v. injection of albumin-FITC; format: in vivo; details: FIGS. 5A, 5B
# Description: In addition to the peptide leu-enkephalin, and the small molecules: CF, uranyl acetate, kyotorphin and sucrose, the inventors have also successfully encapsulated in these vesicles the proteins albumin and trypsinogen and the polysaccharide Dextran-FITC (MW 9000).
# GBM = details: very little gets through the BBB and reaches the tumor; cited from earlier work
# [2] = test system: patients' gliomas implanted in mice; details: cited from earlier work
Compound,delivery of albumin-FITC to the brain (brain accumulation) [1],outcome of attempts to treat GBM patients (GBM),potency rank against patients' gliomas implanted in mice ([2]; out of 40 drugs tested),effectiveness against tumors tested ([2]; patients' gliomas implanted in mice)
un-encapsulated albumin-FITC: albumin-FITC (non-encapsulated),"little, if any, brain accumulation",,,
"CCc1c2c(nc3ccc(OC(=O)N4CCC(N5CCCCC5)CC4)cc13)-c1cc3c(c(=O)n1C2)COC(=O)[C@]3(O)CC [CPT-11, (S)-4,11-diethyl-3,4,12,14-tetrahydro-4-hydroxy-3,14-dioxo1H-pyrano[3′,4′:6,7]-indolizino[1,2-b]quinolin-9-yl-[1,4′bipiperidine]-1′-carboxylate]",,unsuccessful,the most potent chemotherapeutic agent,effective against every tumor tested
